These results are taken from US20170248578A1, “ANTI-CANCER AGENT SENSITIVITY-DETERMINING MARKER” (KEIO UNIVERSITY, priority 2014, published 2017).

Where “and” joins values, the source holds several entries; their conditions need not be identical. Equal entries are not always repeated.

Format in all cases: cell-based, human
Data set [1] concerns DLD-1 into which siRNA had been introduced. Kind of data set: Sensitivity to oxaliplatin after introduction of siRNA, MTS assay. Here is the method:
(§1) The aforementioned nine human colorectal cancer cell lines were respectively inoculated onto a 96 well plate at a density of 1,500 cells/well, and after 24 hours, oxaliplatin was added thereto. The cell survival rate after 48 hours of drug exposure was evaluated by the MTS assay (CellTiter96™ AQueous One Solution Cell Proliferation Assay, Promega), and the IC50 values were determined from the absorbance values. Regarding the drug exposure conditions, eleven conditions such as Control (0 μM), 0.001 μM, 0.01 μM, 0.1 μM, 0.3 μM, 1 μM, 3 μM, 10 μM, 30 μM, 100 μM, and 1,000 μM were used. The evaluation of sensitivity was performed three times with cells of different passage numbers, by measuring three samples each for the respective cell lines, drug exposure time, and drug exposure conditions in a single time test. An analysis was carried out based on the survival rate calculated from the results of the MTS assay.
(§2) Among the nine kinds of colorectal cancer cell lines described in Test Example 1, Ls174T was used as an oxaliplatin-high-sensitivity cell line, HCT116 was used as a moderate-sensitivity cell line, and HT29 and DLD-1 were used as low-sensitivity cell lines.
(§3) Each of the human colorectal cancer cell lines was inoculated into a 6-well plate at a density of 1×10^5 cells/well, and after 24 hours, the medium was replaced with serum-free DMEM medium (Wako, 044-29765). A solution obtained by dissolving 150 pmol per well of each of the siRNAs indicated in Table 8 in 250 μL of Opti MEM (GIBCO, No. 319985) was mixed with a solution obtained by mixing 4.5 μL of Lipofectamin RNAiMAX Reagent (Invitrogen, No. 13778-150) and 250 μL of Opti MEM (GIBCO, No. 319985). The resultant mixture was incubated for 10 to 20 minutes. After incubation, 500 μL each of the mixture was added to each well of the 6-well plate on which the human colorectal cancer cell lines were cultured, and the medium in each well was replaced with a serum-added DMEM medium (Wako, 044-29765) 4 to 6 hours after the addition. The cells were collected 24 hours after the addition of siRNA.
(§4) Regarding the control siRNA, siRNA of No. 4390843 of Life Technologies, Inc. was used.
(§5) Measurement of the sensitivity to oxaliplatin (measurement of IC50 values) of the human colorectal cancer cell lines into which siRNA had been introduced, was performed by the method described in Test Example 1(1)(c).

In data set [2] the test system is HT29 into which siRNA had been introduced. The data set is described as above. The settings on record: for sensitivity to oxaliplatin compared to the case where the control siRNA had been introduced: HT29, 150 pmol siRNA per well. As to the method: as §1, §2, §3, §4, §5
In data set [3] the test system is Ls174T into which siRNA had been introduced. The description is as above. The conditions noted are these: for sensitivity to oxaliplatin compared to the case where the control siRNA had been introduced: 150 pmol siRNA per well. As to the method:
as §1, §2, §3, §4, §5

The test system of data set [4] is HCT116 into which siRNA had been introduced. The data set is described as above. The conditions noted are these: for sensitivity to oxaliplatin compared to the case where the control siRNA had been introduced: HCT116, 150 pmol siRNA per well. Here is the method:
as §1, §2, §3, §4, §5

The subject of the next data set is Lovo. In words: Sensitivity to oxaliplatin, MTS assay. The conditions noted are these: 48 hours of drug exposure, cell survival rate by MTS assay. As to the method:
(§6) Nine human colorectal cancer cell lines (SW480, Ls174T, Lovo, SW620, HCT116, HCT15, HT29, DLD-1, and WiDr) were obtained from the following sources (Table 1).
(§7) Culture was carried out under the conditions of 0100 mm/Tissue Culture Dish (IWAKI), culture medium (D-MEM, 2 mM Glutamine, 10% Fetal Bovine Serum), 37° C., and 5% CO2.
as §1
For orientation: Tetrazolium dyes change colour on reduction, which living cells bring about.

Another data set has as its system HT29. In words: Sensitivity to oxaliplatin, MTS assay. The conditions noted are these: HT29, 48 hours of drug exposure, cell survival rate by MTS assay. As to the method:
as §6, §7, §1

The next data set deals with SW620. Kind of data set: Sensitivity to oxaliplatin, MTS assay. The conditions noted are these: SW620, 48 hours of drug exposure, cell survival rate by MTS assay. As to the method:
as §6, §7, §1

Another data set concerns Ls174T. In words: Sensitivity to oxaliplatin, MTS assay. The conditions noted are these: 48 hours of drug exposure, cell survival rate by MTS assay. Here is the method:
as §6, §7, §1

In the next data set the test system is WiDr. In words: Sensitivity to oxaliplatin, MTS assay. The conditions noted are these: 48 hours of drug exposure, cell survival rate by MTS assay. Here is the method:
as §6, §7, §1

A further data set has as its system DLD-1. In words: Sensitivity to oxaliplatin, MTS assay. The conditions noted are these: DLD-1, 48 hours of drug exposure, cell survival rate by MTS assay. As to the method: as §6, §7, §1
A further data set relates to HCT116. In words: Sensitivity to oxaliplatin, MTS assay. The conditions noted are these: HCT116, 48 hours of drug exposure, cell survival rate by MTS assay. Here is the method: as §6, §7, §1
Another data set concerns HCT15. In words: Sensitivity to oxaliplatin, MTS assay. The settings on record: HCT15, 48 hours of drug exposure, cell survival rate by MTS assay. As to the method: as §6, §7, §1
In the next data set the test system is SW480. In words: Sensitivity to oxaliplatin, MTS assay. The conditions noted are these: SW480, 48 hours of drug exposure, cell survival rate by MTS assay. Here is the method: as §6, §7, §1

As to `O=C1[O][Pt]2([NH][C@@H]3CCCC[C@H]3[NH]2)[O]C1=O` [oxaliplatin, (SP-4-2)-[(1R,2R)-cyclohexane-1,2-diamine-κN, κN′] [ethanedio ato(2-)-κO^1, κO^2]platinum], the half-inhibitory concentration (IC50) in data set [1] (DLD-1, Control siRNA introduced) worked out at 14.7 µM; in [1] (DLD-1, PHB siRNA introduced) it was 52.3 µM; in data set [2] (HT29, ANXA5 siRNA introduced), 5.35 µM; in data set [2] (HT29, Control siRNA introduced), 16.1 µM; in [2] (HT29, PHB siRNA introduced) it was 41.9 µM; in data set [2] (HT29, TALDO siRNA introduced) it was 2.77 µM. For the same compound, the IC50 in data set [3] (Control siRNA introduced) was 0.86 µM and 0.68 µM; in data set [3] (IPYR siRNA introduced) it was 0.39 µM; in data set [3] (PHB siRNA introduced), 11.9 µM; in data set [3] (TALDO siRNA introduced), 0.43 µM; in data set [4] (HCT116, ANXA5 siRNA introduced), 0.76 µM; in [4] (HCT116, C1QBP siRNA introduced), 2.18 µM. The IC50 is 1.72 µM and 1.39 µM and 1.53 µM and 1.34 µM in [4] (HCT116, Control siRNA introduced); 21.5 µM in [4] (HCT116, PHB siRNA introduced); 0.73 µM in data set [4] (HCT116, TALDO siRNA introduced); 0.79 ± 0.18 µM with Lovo; 7.99 ± 2.66 µM with HT29; 1.14 ± 0.74 µM in the data set with SW620. Besides, the IC50 came to 0.61 ± 0.11 µM in the data set with Ls174T; 17.7 ± 8.39 µM in the data set on WiDr; 13.9 ± 6.29 µM in the data set on DLD-1; 1.15 ± 0.34 µM with HCT116; 1.45 ± 0.44 µM in the data set with HCT15; 0.43 ± 0.13 µM in the data set on SW480.

In the case of “IPYR siRNA: siRNA GGAAUCAGUUGCAUGAAUAtt (life technologies, s10878), SEQ ID NO: 5 (GGAAUCAGUUGCAUGAAUATT; chemistry not given here)”, the “sensitivity to oxaliplatin compared to the case where the control siRNA had been introduced” value in [3] is given as “enhanced”.

As for “C1QBP siRNA: siRNA GGCCUUAUAUGACCACCUAtt (life technologies, s2139), SEQ ID NO: 4 (GGCCUUAUAUGACCACCUATT; chemistry not given here)”, the “sensitivity to oxaliplatin compared to the case where the control siRNA had been introduced” value in [4] is recorded as “decreased”.

As to “PHB siRNA: siRNA CGUGGGUACAGAAACCAAUtt (life technologies, s10424), SEQ ID NO: 1 (CGUGGGUACAGAAACCAAUTT; chemistry not given here)”, the “sensitivity to oxaliplatin compared to the case where the control siRNA had been introduced” value in [1] (DLD-1, 150 pmol siRNA per well) was “decreased”; in [2], “decreased”; in data set [3], “decreased”; in data set [4] it was “decreased”.

Consider “TALDO siRNA: siRNA UGCUAUUGAUAAACUUUUUtt (life technologies, s13776), SEQ ID NO: 3 (UGCUAUUGAUAAACUUUUUTT; chemistry not given here)”, for which the “sensitivity to oxaliplatin compared to the case where the control siRNA had been introduced” value in data set [2], in data set [3] and in [4] was “enhanced” each time.

On to “ANXA5 siRNA: siRNA GUACAUGACUAUAUCAGGAtt (life technologies, s1392), SEQ ID NO: 2 (GUACAUGACUAUAUCAGGATT; chemistry not given here)”, for which the “sensitivity to oxaliplatin compared to the case where the control siRNA had been introduced” value in [2] and in data set [4] was “enhanced” in each case.

The IC50 is the midpoint of a concentration-inhibition curve. Lower therefore signals higher potency.
